Drawing on ChEMBL document CHEMBL1128048, “Synthesis of chromophoric dipeptides as substrates for papain” (Bioorg Med Chem Lett, 1995), this text covers Km, k cat and Ratio for 4 molecules.

Holding throughout (format): ADME
Data set [1] is described as follows: Compound was evaluated for Michaelis-Menten constant, Km.
The nature of data set [2]: Compound was evaluated for catalytic constant, Kcat.
Data set [3] is described as follows: Ratio of catalytic constant to Michaelis-Menten constant (Kcat/Km).

With `CCOC(=O)/C(=C\c1ccc(C)s1)NC(=O)[C@H](Cc1ccccc1)NC(C)=O`, in data set [1], the Km is listed as 0.062 Me-3. For the same molecule, the k cat in data set [2] came out at 0.0033 s⁻¹. Besides, the Ratio in data set [3] amounted to 3.2.

In data set [2], `CCOC(=O)N/C(=C/c1ccc(C)s1)C(=O)n1ccnc1` returned a k cat of 0.0013 s⁻¹.

Consider `Cc1ccc(/C=C\C(=O)n2ccnc2)s1`, for which, in data set [2], the k cat turned out to be 0.0012 s⁻¹.

Turning to `CCOC(=O)/C(=C\c1ccc(C)s1)NC(=O)[C@H](C)NC(C)=O`, the Km in data set [1] amounted to 3.9 Me-3. Moreover, the k cat in data set [2] was 0.0033 s⁻¹. Moreover, the Ratio in data set [3] is on record as 0.05.
